Data: article PMC4792161, “A novel pyrazole derivative protects from ovariectomy-induced osteoporosis through the inhibition of NADPH oxidase” (Scientific Reports, 2016)
Counter-ions that a name gives are not always drawn. Marks after values point to notes of the source that are not given here.

Key:
[1] = system: OVX-induced osteoporotic ddY mice; assay: Right femur BMD by DEXA in OVX mice; format: in vivo; settings: oral once daily 28 days
xanthine oxidase = xanthine oxidase (Bos taurus, UniProt P80457); assay: Xanthine oxidase assay (lucigenin); format: biochemical
Protocol: Xanthine oxidase activity was measured by lucigenin. Reaction mixtures contained 0.1 mU xanthine oxidase, 0.25 mM Xanthine, and 0.4 mM lucigenin with the indicated inhibitor (0–20 μM). Luminescence measured over 30 min at 37 °C with luminometor (DTX800, Beckman coulter).

[2] = system: OVX-induced osteoporotic ddY mice; assay: OVX-induced osteoporosis in ddY mice, overall anti-osteoporotic effect; format: in vivo
Protocol: (§1) Risedronate sodium (2.5 mg/kg) served as a reference compound. […] Histopathology and histomorphometrical analyses including trabecular bone volume (BV/TV), trabecular bone number (Tb.N), trabecular bone length (Tb.Le), trabecular bone thickness (Tb.Th), cortical bone thickness (Ct.Th), OC number (N.Oc), bone mineral density (BMD) and bone strength (failure load, FL) were conducted.
(§2) The study was reviewed and approved by the Institutional Animal Care and Use Committee (IACUC) of Center for Laboratory Animal Sciences, Ewha Industry-University Cooperation Foundation, Ewha Womans University. Experimental methods were carried out in accordance with the approved ethic guidelines in Ewha Industry-University Cooperation Foundation, Ewha Womans University. Beginning 4 weeks after OVX, the female ddY mice received 2.5, 5, 10, or 20 mg/kg of #18–278, 2.5 mg/kg of risedronate, or vehicle once daily for 28 days. The Changes in body weight, bone weight, bone mineral density (BMD), failure load (FL), bone calcium (Ca), inorganic phosphorus (P) contents, histology and histomorphology were monitored. Serum osteocalcin and bone specific alkaline phosphatase (bALP) were monitored in mice receiving Ewha-18278.

[3] = system: OVX-induced osteoporotic ddY mice; assay: Femur histopathology-histomorphometry in OVX mice; format: in vivo
Protocol: as §1, §2
The left side of femur of each mouse was separated and fixed in 10% neutral buffered formalin and decalcified in a solution comprised of 24.4% formic acid and 0.5N sodium hydroxide for 5 days, with spent solution replaced with fresh solution each day. Each sample was embedded in paraffin, sectioned to a thickness of 3–4 μm and exposed to with Hematoxylin & Eosin (H&E) stain. Histomorphometry was conducted as for bone mass and structure with bone resorption in a uniform area of epiphyseal regions of femur (growth plate regions were excluded). Cortical bone thickness was measured in the mid-shaft region of the femur.

[4] = system: OVX-induced osteoporotic ddY mice; assay: Tibia histopathology-histomorphometry in OVX mice; format: in vivo
[5] = system: OVX-induced osteoporotic ddY mice; assay: Femur weights (wet, dry, ash) in OVX mice; format: in vivo
Protocol: The right sides of femur and tibia were weighed and then dried at 120 °C for 8 hours. The dried bones were carbonized at 800 °C for 6 hours in a furnace (Daihan Scientific, Korea) to detect ash absolute weights, after measurement of BMD and failure load. To reduce the individual body weight differences, the relative weight (%) was calculated using body weight at sacrifice and absolute weight as [Relative bone weights = (Absolute bone weight/Body weight at sacrifice) ×100]. In addition, ashed bones were ground and dissolved in nitric acid. In diluted solution, Ca and P contents were calculated (mg/g bone) using an orthocresolphthalein complex and enzyme methods, respectively. The Ca/P ratio (%) was calculated as (Tibia Ca contents/Tibia P contents) ×100.

[6] = Body weight changes in OVX mice; format: in vivo, ddY mice; settings: risedronate 2.5 mg/kg; Ewha-18278 2.5, 5, 10 and 20 mg/kg; 28 days
Protocol: as §2
R esi dronat e 2. 5mg/kg t reated mi ce […]
D ay after administration (d)
Supplementary Figure S7. Body weight changes in OVX mice. We selected eight mice per group showing more increases of body weights as compared with sham-operated mice and regarded as good OVX animals at four weeks after OVX surgery, consequently, significant increases of body weights were detected in all OVX groups as compared with sham control mice throughout 28 days of […]
mice, in the present study. Values are expressed mean ± S.D. of eight mice. Risedronate sodium was administered at 2.5mg/kg levels. […]

[7] = 2.5 mg/kg oral once daily 28 days
[8] = 5 mg/kg oral once daily 28 days
[9] = 10 mg/kg oral once daily 28 days
[10] = 20 mg/kg oral once daily 28 days

xanthine oxidase, sequence (P80457 2-1332): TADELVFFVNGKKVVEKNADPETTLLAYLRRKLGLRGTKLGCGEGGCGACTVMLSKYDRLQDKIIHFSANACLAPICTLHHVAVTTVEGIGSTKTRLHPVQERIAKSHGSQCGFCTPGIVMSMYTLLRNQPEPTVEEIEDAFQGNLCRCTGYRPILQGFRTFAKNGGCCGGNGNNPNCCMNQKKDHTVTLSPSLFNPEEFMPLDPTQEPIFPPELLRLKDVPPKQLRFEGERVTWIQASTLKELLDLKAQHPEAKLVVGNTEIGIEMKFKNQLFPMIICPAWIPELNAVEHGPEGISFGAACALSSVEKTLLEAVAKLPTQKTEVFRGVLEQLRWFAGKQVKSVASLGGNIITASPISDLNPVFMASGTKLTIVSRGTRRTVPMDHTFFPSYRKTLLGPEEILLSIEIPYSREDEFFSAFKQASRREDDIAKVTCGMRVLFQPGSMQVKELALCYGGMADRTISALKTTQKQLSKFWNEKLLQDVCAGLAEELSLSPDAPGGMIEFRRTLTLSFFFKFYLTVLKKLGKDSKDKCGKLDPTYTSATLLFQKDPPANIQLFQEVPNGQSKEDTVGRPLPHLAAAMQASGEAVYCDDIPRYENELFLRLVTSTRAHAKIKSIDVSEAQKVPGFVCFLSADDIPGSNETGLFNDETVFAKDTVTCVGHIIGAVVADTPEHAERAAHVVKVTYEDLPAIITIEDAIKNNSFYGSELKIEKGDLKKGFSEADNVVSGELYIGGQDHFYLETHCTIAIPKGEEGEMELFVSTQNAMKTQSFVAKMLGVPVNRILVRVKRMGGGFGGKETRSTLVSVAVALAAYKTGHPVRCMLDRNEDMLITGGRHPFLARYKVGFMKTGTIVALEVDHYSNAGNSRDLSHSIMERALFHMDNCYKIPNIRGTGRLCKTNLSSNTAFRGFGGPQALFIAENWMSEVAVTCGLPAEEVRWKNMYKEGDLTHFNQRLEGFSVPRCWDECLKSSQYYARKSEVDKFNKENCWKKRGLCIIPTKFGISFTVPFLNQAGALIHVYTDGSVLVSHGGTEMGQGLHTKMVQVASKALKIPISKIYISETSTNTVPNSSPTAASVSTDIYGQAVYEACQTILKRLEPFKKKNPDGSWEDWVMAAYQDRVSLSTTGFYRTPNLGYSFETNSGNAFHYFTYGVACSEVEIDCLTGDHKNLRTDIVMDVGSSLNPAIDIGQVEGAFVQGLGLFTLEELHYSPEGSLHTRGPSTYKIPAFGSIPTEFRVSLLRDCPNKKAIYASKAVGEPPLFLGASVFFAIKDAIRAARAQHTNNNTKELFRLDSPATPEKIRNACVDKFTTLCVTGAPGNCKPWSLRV

Structure (SMILES): CCCc1c(-c2ccccc2)nn(-c2ccccn2)c1O [Ewha-18278, 3-phenyl-1-(pyridin-2-yl)-4-propyl-1H-5-hydroxypyrazole HCl]
- BMD of femur compared to OVX control [1]: dramatic increased BMD
- inhibitory activity on xanthine oxidase (xanthine oxidase): no inhibitory activities
- anti-osteoporotic effects ([2]; 2.5 mg/kg): did not produce obvious favorable anti-osteoporotic effects
- anti-osteoporotic effects compared to risedronate (2.5 mg/kg/day for 28 days) ([2]; 10 mg/kg/day for 28 days): similar
- cortical bone thickness compared to risedronate ([2]; OVX mice): significantly increased cortical bone thickness
- number of OCs in the tibia and femur ([2]; compared to control mice): decreased number of OCs
- optimal effective dosage ([2]; oral once daily 28 days, OVX mice): 10 mg/kg
- BV/TV (trabecular bone volume) [3, 7]: 23.62 ± 3.63 ^a %
- Ct.Th (cortical bone thickness) [3, 7]: 136.48 ± 10.32 ^a μm
- N.OC/BS (osteoclast cell number, N/epiphyseal) [3, 7]: 13.75 ± 2.25 ^e numbers
- Tb.N (trabecular bone number, N/epiphyseal) [3, 7]: 9.75 ± 1.67 ^e numbers
- Tb.Th (trabecular bone thickness) [3, 7]: 40.98 ± 5.94 ^a μm
- BV/TV (trabecular bone volume) [3, 8]: 29.06 ± 2.72 ^ac %
- Ct.Th (cortical bone thickness) [3, 8]: 159.04 ± 13.45 ^ac μm
- N.OC/BS (osteoclast cell number, N/epiphyseal) [3, 8]: 10.63 ± 2.77 ^eg numbers
- Tb.N (trabecular bone number, N/epiphyseal) [3, 8]: 11.25 ± 1.04 ^eh numbers
- Tb.Th (trabecular bone thickness) [3, 8]: 52.98 ± 8.96 ^ac μm
- BV/TV (trabecular bone volume) [3, 9]: 33.63 ± 3.51 ^c %
- Ct.Th (cortical bone thickness) [3, 9]: 165.52 ± 12.06 ^ac μm
- N.OC/BS (osteoclast cell number, N/epiphyseal) [3, 9]: 6.63 ± 1.30 ^eg numbers
- Tb.N (trabecular bone number, N/epiphyseal) [3, 9]: 15.38 ± 1.60 ^eg numbers
- Tb.Th (trabecular bone thickness) [3, 9]: 68.14 ± 11.23 ^ac μm
- BV/TV (trabecular bone volume) [3, 10]: 34.07 ± 3.89 ^c %
- Ct.Th (cortical bone thickness) [3, 10]: 198.06 ± 12.51 ^c μm
- N.OC/BS (osteoclast cell number, N/epiphyseal) [3, 10]: 5.63 ± 1.41 ^fg numbers
- Tb.N (trabecular bone number, N/epiphyseal) [3, 10]: 16.63 ± 1.19 ^eg numbers
- Tb.Th (trabecular bone thickness) [3, 10]: 71.98 ± 12.20 ^ac μm
- BV/TV (trabecular bone volume) [4, 7]: 19.04 ± 3.10 ^a %
- Ct.Th (cortical bone thickness) [4, 7]: 122.04 ± 11.96 ^a μm
- N.OC/BS (osteoclast cell number, N/epiphyseal) [4, 7]: 14.13 ± 3.44 ^a numbers
- Tb.N (trabecular bone number, N/epiphyseal) [4, 7]: 8.63 ± 1.60 ^a numbers
- Tb.Th (trabecular bone thickness) [4, 7]: 34.89 ± 5.16 ^a μm
- BV/TV (trabecular bone volume) [4, 8]: 29.39 ± 2.41 ^bc %
- Ct.Th (cortical bone thickness) [4, 8]: 137.51 ± 10.96 ^ac μm
- Tb.N (trabecular bone number, N/epiphyseal) [4, 8]: 12.50 ± 1.31 ^ac numbers
- Tb.Th (trabecular bone thickness) [4, 8]: 48.34 ± 6.87 ^ac μm
- BV/TV (trabecular bone volume) [4, 9]: 33.36 ± 4.35 ^c %
- Ct.Th (cortical bone thickness) [4, 9]: 182.11 ± 12.48 ^c μm
- N.OC/BS (osteoclast cell number, N/epiphyseal) [4, 9]: 8.13 ± 2.23 ^ac numbers
- Tb.N (trabecular bone number, N/epiphyseal) [4, 9]: 15.00 ± 2.00 ^ac numbers
- Tb.Th (trabecular bone thickness) [4, 9]: 53.36 ± 5.94 ^ac μm
- BV/TV (trabecular bone volume) [4, 10]: 33.78 ± 3.47 ^c %
- Ct.Th (cortical bone thickness) [4, 10]: 194.28 ± 15.50 ^c μm
- N.OC/BS (osteoclast cell number, N/epiphyseal) [4, 10]: 6.88 ± 2.36 ^ac numbers
- Tb.N (trabecular bone number, N/epiphyseal) [4, 10]: 17.13 ± 1.81 ^c numbers
- Tb.Th (trabecular bone thickness) [4, 10]: 55.98 ± 7.15 ^ac μm
- Femur absolute weights, Ash [5, 7]: 0.030 g
- Femur absolute weights, Dry [5, 7]: 0.065 g
- Femur absolute weights, Wet [5, 7]: 0.097 g
- Femur absolute weights, Ash [5, 8]: 0.037 g
- Femur absolute weights, Dry [5, 8]: 0.065 g
- Femur absolute weights, Wet [5, 8]: 0.093 g
- Femur absolute weights, Ash [5, 9]: 0.038 g
- Femur absolute weights, Dry [5, 9]: 0.067 g
- Femur absolute weights, Wet [5, 9]: 0.096 g
- Femur absolute weights, Ash [5, 10]: 0.038 g
- Femur absolute weights, Dry [5, 10]: 0.067 g
- Femur absolute weights, Wet [5, 10]: 0.096 g
- body weights as compared with OVX control mice [6]: no meaningful changes
